According to paper PMC10327353 (Breast Cancer Research : BCR, 2023):

Test: Phase 1 study: safety and tolerability
Format: in vivo
Settings: 25 mg (N = 1)
Protocol: The maximum tolerated dose (MTD) of DZD1516 was defined based on safety data and the Bayesian optimal interval (BOIN) design (Additional file 1). The definition of DLT is provided in Additional file 1.
The AE grading was assessed according to the NCI-Common Terminology Criteria for Adverse Events (CTCAE) (version 5.0) and was monitored until 28 days after the last dose.
Eligible patients received single oral dosing of DZD1516 on Cycle 0 Day 1 (C0D1), followed by a 7-day washout. Twice daily oral dosing (bid) of DZD1516 was commenced from C1D1 in a continuous 21-day cycle until disease progression, unacceptable toxicity, or withdrawal of consent. All doses were taken under fed conditions (within 30 minutes after a meal).
Planned dosing consisted of 25, 50, 100, 200, 300, and 400 mg. Each dose escalation cohort will comprise a minimum of three and a maximum of six evaluable patients (except only one patient in the starting dose cohort). The maximum tolerated dose of DZD1516 was defined according to safety data and the Bayesian optimal interval (BOIN) design. Dose escalation/de-escalation rule with target toxicity rate for the MTD is 0.30 with interval of (0.20, 0.33).
DLTs were any adverse event (AE) not clearly attributable to the patient’s disease, including ≥ grade 4 hematological toxicities present for ≥ 4 days, grade 3 thrombocytopenia with bleeding, or grade 4 thrombocytopenia lasting for > 5 days, ≥ grade 3 non-hematological toxicities that is dose-limiting in the judgment of the investigators. Any other toxicity that is greater than that at baseline, is clinically significant or unacceptable, and is judged to be a DLT by the SRC. Exceptions included alopecia of any grade and isolated grade 3 laboratory change without clinical sequelae or clinical significance.
Safety evaluations were conducted at screening, on Day 1, 8, and 15 of Cycle 1, on Day 1 of each subsequent treatment cycle, at the end-of-treatment visit, and clinically indicated. Safety assessments included clinical laboratory measurements (hematology, chemistry, coagulation, and urinalysis), electrocardiogram (ECG), Echocardiogram/MUGA scan, ECOG performance status, vital signs, and physical examinations.

COc1cc(O[C@H]2CCN(C)CC2(F)F)c2c(Nc3ccc(Oc4ccn5ncnc5c4)c(C)c3)ncnc2c1 [DZD1516]
1 (100.0) n (%): Blood bilirubin increased, Any Grade | Investigations, Any Grade | Participants with any TEAE, Any Grade
0 (0.0) n (%): Alanine aminotransferase increased, Any Grade | Alanine aminotransferase increased, ≥ Grade 3 | Anemia, Any Grade | Anemia, ≥ Grade 3 | Any TEAE: Grade 3 | Any TEAE: Leading to death | Any TEAE: Leading to dose reduction | Any TEAE: Leading to treatment discontinuation | Any TEAE: Leading to treatment interruption | Any TEAE: SAE | Aspartate aminotransferase increased, Any Grade | Aspartate aminotransferase increased, ≥ Grade 3 | Blood and lymphatic system disorders, Any Grade | Blood and lymphatic system disorders, ≥ Grade 3 | Blood bilirubin increased, ≥ Grade 3 | Cardiac disorders, Any Grade | Cardiac disorders, ≥ Grade 3 | Constipation, Any Grade | Constipation, ≥ Grade 3 | Decreased appetite, Any Grade | Decreased appetite, ≥ Grade 3 | Dizziness, Any Grade | Dizziness, ≥ Grade 3 | Drug-related TEAE: Grade 3 | Drug-related TEAE: Leading to death | Drug-related TEAE: Leading to dose reduction | Drug-related TEAE: Leading to treatment discontinuation | Drug-related TEAE: Leading to treatment interruption | Drug-related TEAE: SAE | Fatigue, Any Grade | Fatigue, ≥ Grade 3 | Gastrointestinal disorders, Any Grade | Gastrointestinal disorders, ≥ Grade 3 | General disorders and administration site conditions, Any Grade | General disorders and administration site conditions, ≥ Grade 3 | Headache, Any Grade | Headache, ≥ Grade 3 | Hemoglobin decreased, Any Grade | Hemoglobin decreased, ≥ Grade 3 | Investigations, ≥ Grade 3 | Lipase increased, Any Grade | Lipase increased, ≥ Grade 3 | Malaise, Any Grade | Malaise, ≥ Grade 3 | Metabolism and nutrition disorders, Any Grade | Metabolism and nutrition disorders, ≥ Grade 3 | Musculoskeletal and connective tissue disorders, Any Grade | Musculoskeletal and connective tissue disorders, ≥ Grade 3 | Nausea, Any Grade | Nausea, ≥ Grade 3 | Nervous system disorders, Any Grade | Nervous system disorders, ≥ Grade 3 | Participants with any TEAE, ≥ Grade 3 | Platelet count decreased, Any Grade | Platelet count decreased, ≥ Grade 3 | Proteinuria, Any Grade | Proteinuria, ≥ Grade 3
